{"source": "patent US20090123501A1", "about": "“INHIBITION OF THE SH2-DOMAIN CONTAINING PROTEIN TYR-PHOSPHATASE, SHP-1, TO ENHANCE VACCINES” (Baylor College of Medicine, priority 2007, published 2009)", "key": {"SHP-1 mRNA": {"test_system": "SHP-1 mRNA", "assay": "SHP-1 mRNA knock-down by quantitative RT-PCR in RAW cells", "assay_type": "cell-based, murine", "conditions": "relative to no virus treatment", "excerpt": "Two mouse SHP-1 specific small hairpin RNAs (shRNA) sequences, 272 and 1149, (referred to by their nucleotide position from the start site of the coding sequence in Genbank mRNA Accession #BC012660) were designed and cloned into the adenoviral vector pAd-BLOCK-iT-DEST RNAi (Invitrogen, Carlsbad, Calif.) which provides U6 polymerase […] promoter-driven expression of the shRNA. The exemplary shRNA sequences Ad5-shRNA#1149 (SEQ ID NO:11) and Ad5-shRNA#272 (SEQ ID NO:12) are provided as follows: […] (SEQ ID NO:11) and […] (SEQ ID NO:12), wherein sequence underlined in the shRNA is the exemplary SHP-1 specific palandromic 21-mer. Adenovirus carrying the appropriate sequence were produced and expanded in HEK-293 cells (ATCC Manassas, Va.). These viruses were then plaque purified and the ability to knock-down SHP-1 mRNA was tested in RAW cells, a murine macrophage-like cell line, by quantitative RT-PCR and are shown as a percent of the no virus treatment (FIG. 2A and FIG. 2B). Adenovirus expressing green fluorescent protein was used as a negative control for viral treatment (FIG. 2C). […] The ability of this shRNA to knock down SHP-1 protein was examined by western blot (FIG. 2D). A large scale, high titer, preparation of Ad-shRNA#1149 was produced by the Viral Vector Core Laboratory at Baylor College of Medicine and used in subsequent studies."}, "BMDCs": {"test_system": "BMDCs", "assay": "In vitro transwell DC migration to CCL21", "assay_type": "cell-based, C57BL/6 mice", "conditions": "BMDCs transduced 48 hours, 100 ng/mL CCL21, 3 hours transwell", "experimental": "Primary bone marrow-derived dendritic cells (BMDCs) were prepared from wild type mice in the following manner: Bone marrow cells were flushed from the femurs and tibias of C57BL/6 mice and cultured for 6 days in RPMI media supplemented with 10% FBS, 10 ng/mL IL-4 and 10 ng/mL GMCSF along with antibiotics. On day 6, dendritic cells (DCs) were either purified by magnetic bead assisted cell sorting (MACS; Miltenyi Biotec, Auburn, Calif.) prior to adenoviral transduction, or used as unpurified bulk DCs that were then transduced with adenovirus.\nFor DCs to initiate an immune response, they must capture antigen in the periphery and then migrate to the lymph nodes where they stimulate antigen specific T cells. To determine if SHP-1 signaling could affected the ability of DCs to migrate to draining lymph nodes, trafficking studies were performed both in vitro and in vivo. For the in vitro DC migration assays, unpurified bulk BMDCs were transduced with either Ad5-SHP1-shRNA or Ad5-scrambled-shRNA for 48 hours or left untreated. Half of the untreated cells were treated with 1 μg/mL LPS for 24 hours. Cells were collected and washed in serum-free media (SFM) and resuspended at 5×10^6 cells/mL. […] BMDCs migrating into the lower chamber were counted using a hematocytometer."}, "total splenocytes": {"test_system": "total splenocytes", "assay": "T cell subsets in total splenocytes 7 days after DC vaccination, flow cytometry", "assay_type": "in vivo, C57BL/6 mice", "conditions": "by viral treatment, peptides pooled", "experimental": "To determine the effect of SHP-1 inhibition on the initiation of T cell responses, BMDCs were cultured and CD11c^+ MACS purified as described above. […] Following peptide loading DCs were left untreated or transduced with one of 3 different adenoviral vectors: 1) Ad5-SHP-1-shRNA; 2) Ad5-scrambled-shRNA; or 3) Ad5-CMV-empty, an adenovirus carrying a CMV promoter expression vector but no insert. […] Using all combinations of peptide and virus treatment yielded 9 experimental vaccines and one no vaccine control. Vaccines (2×10^6 DCs) were injected i.p. into wt C57BL/6 mice. Seven days following vaccination mice were sacrificed and total splenocytes were analyzed by multi-color flow cytometry for the expression of several T cell subsets. CD3^+ CD8^+IFNγ^+ cells were characterized as CTL effectors, CD3^+ CD4^+IFNγ^+ cells were characterized as Th1 helper T cells, and CD4^+ FOXP3^+ cells were characterized as Treg cells. Flow cytometry data were analyzed by one-way analysis of variance (ANOVA) and Tukey-Kramer HSD multiple comparisons test for percentage of cells falling within each population following treatment. Cells were stained with anti-CD3, anti-CD8 and anti IFNγ to differentiate CD8^+ effectors and CD4^+ Th1 T cell skewing or anti-CD4 and anti-FOXP3 to determine Tregs. To determine if there was a peptide specific effects between the 3 different tumor antigens, viral treatments were pooled for each peptide exposure. Data represent the averages 6 mice per peptide treatment group and 2 mice in the no treatment control group. No significant differences were seen between peptides in the induction of Tregs or CD8^+ effector cells.\n(§1) Following peptide loading DCs were left untreated or transduced with one of 3 different adenoviral vectors: 1) Ad5-SHP-1-shRNA; 2) Ad5-scrambled-shRNA; or 3) Ad5-CMV-empty, an adenovirus carrying a CMV promoter expression vector but no insert. Vaccines were injected i.p. into wt C57BL/6 mice and T cell skewing analyzed 7 days later by flow cytometry from total splenocytes. Cells were stained with anti-CD3, anti-CD8 and anti IFNγ for effector and Th1 cells or anti-CD4 and anti-FOXP3 for Tregs. For the peptide specific analysis viral treatments were pooled for each peptide exposure. Data represent the averages 6 mice per peptide treatment and two mice in the no treatment control group. The green diamonds represent the mean and 95% confidence interval for each group from the ANOVA. The black line is the mean of means for the study and red asterisk (*) indicates significant differences (p<0.05 by Tukey-Kramer HSD multiple comparisons test).\nas §1, with “the SHP-1” for “the peptide”, “each viral treatment.” for “each peptide exposure.”, “and 2” for “and two”, “ANOVA. […]” for “ANOVA. The black line is the mean of means for the study and red asterisk (*) indicates significant differences (p<0.05 by Tukey-Kramer HSD multiple comparisons test).”"}, "[1]": {"conditions": "2×10^6 DCs i.p., day 7, vs no vaccine control"}}, "data": [{"sequence": "CACCGGAGCATGACACAGCAGAATACGAATATTCTGCTGTGTCATGCTCC (chemistry not given here) [Ad5-SHP-1-shRNA]", "values": [{"measurement": "reduction in SHP-1 mRNA", "setting": "SHP-1 mRNA", "value": "> 5", "unit": "fold reduction"}, {"measurement": "migration index (migration to CCL21 relative to migration without CCL21)", "setting": "BMDCs", "value": "not significantly different from that of untreated cells"}, {"measurement": "proportion of CD4+ Th1 skewed T cells (CD3+CD4+IFNγ+)", "setting": "total splenocytes; [1]", "value": "significantly higher proportion"}, {"measurement": "proportion of CD8+ effector cells (CD3+CD8+IFNγ+)", "setting": "total splenocytes; [1]", "value": "significantly higher proportion"}, {"measurement": "percentage of Tregs (CD4+FOXP3+)", "setting": "total splenocytes; day 7, vs empty viral control", "value": "significantly decreased the percentage of Tregs"}]}]}
